Measurements: ChEMBL document CHEMBL5344409, “Discovery of pan-IAP degraders via a CRBN recruiting mechanism” (2023)
The source made the active and inactive calls. The rule behind the calls is not given here.

How the values were obtained:
[1] = target: T1, Protein cereblon/E3 ubiquitin-protein ligase XIAP (Homo sapiens) (UniProt P98170+Q96SW2); test: PROTAC activity at CRBN/XIAP in human MCF7 cells assessed as induction of XIAP degradation at 0.1 uM measured after 18 hrs by western blot analysis; assay type: cell-based
[2] = target: T1, Protein cereblon/E3 ubiquitin-protein ligase XIAP (Homo sapiens); test: PROTAC activity at CRBN/XIAP in human MCF7 cells assessed as induction of XIAP degradation at 1 uM measured after 18 hrs by western blot analysis; assay type: cell-based
[3] = target: T2, Protein cereblon/Baculoviral IAP repeat-containing protein 3 (Homo sapiens) (UniProt Q13489+Q96SW2); test: PROTAC activity at CRBN/cIAP2 in human MCF7 cells assessed as induction of cIAP2 degradation at 0.1 uM measured after 18 hrs by western blot analysis; assay type: cell-based
[4] = target: T2, Protein cereblon/Baculoviral IAP repeat-containing protein 3 (Homo sapiens); test: PROTAC activity at CRBN/cIAP2 in human MCF7 cells assessed as induction of cIAP2 degradation at 1 uM measured after 18 hrs by western blot analysis; assay type: cell-based
[5] = target: Baculoviral IAP repeat-containing protein 2 (Homo sapiens) (UniProt Q13490); test: Induction of cIAP1 degradation in human MCF7 cells at 0.1 uM measured after 18 hrs by western blot analysis; assay type: cell-based
[6] = target: Baculoviral IAP repeat-containing protein 2 (Homo sapiens) (UniProt Q13490); test: Induction of cIAP1 degradation in human MCF7 cells at 1 uM measured after 18 hrs by western blot analysis; assay type: cell-based
[7] = target: Protein cereblon (Homo sapiens) (UniProt Q96SW2); test: Induction of CRBN degradation in human MCF7 cells by western blot analysis; assay type: cell-based
[8] = target: Baculoviral IAP repeat-containing protein 2 (Homo sapiens) (UniProt Q13490); test: Induction of cIAP1 degradation in human MCF7 cells by western blot analysis; assay type: cell-based
[9] = target: T2, Protein cereblon/Baculoviral IAP repeat-containing protein 3 (Homo sapiens); test: PROTAC activity at CRBN/cIAP2 in human MCF7 cells assessed as induction of cIAP2 degradation by western blot analysis; assay type: cell-based
[10] = system: MCF7; test: Induction of apoptosis in human MCF7 cells assessed as increase in caspase 7 cleavage at 0.1 uM measured after 18 hrs by western blot analysis; assay type: functional, cell-based
[11] = system: MCF7; test: Induction of apoptosis in human MCF7 cells assessed as increase in PARP cleavage at 0.1 uM measured after 18 hrs by western blot analysis; assay type: functional, cell-based
[12] = system: MCF7; test: Induction of apoptosis in human MCF7 cells assessed as increase in total apoptotic cells at 1 uM measured after 48 hrs by AnnexinV-FITC/PI staining based flow cytometry; assay type: functional
[13] = system: MCF7; test: Cytotoxicity against human MCF7 cells assessed as inhibition of cell growth measured after 72 hrs by CellTiter-Glo luminescent assay; assay type: functional
[14] = system: SK-OV-3; test: Cytotoxicity against human SK-OV-3 cells assessed as inhibition of cell growth measured after 72 hrs by CellTiter-Glo luminescent assay; assay type: functional, cell-based
[15] = target: Baculoviral IAP repeat-containing protein 3 (Homo sapiens) (UniProt Q13489); test: Induction of cIAP2 degradation in human MCF7 cells by western blot analysis; assay type: cell-based
[16] = target: T3, Protein cereblon-IAP (Homo sapiens) (UniProt P98170+Q13489+Q13490+Q96SW2); test: PROTAC activity at CRBN/IAP in human MCF7 cells assessed as inhibition of TNFalpha-induced NFkappaB activation by measuring decrease in IKKalpha/beta phosphorylation at 0.1 uM pretreated for 2 hrs followed by stimulation with TNF-alpha for 3 mins by western blot analysis; assay type: cell-based; conditions: time 123.0 min
[17] = target: T3, Protein cereblon-IAP (Homo sapiens); test: PROTAC activity at CRBN/IAP in human MCF7 cells assessed as inhibition of TNFalpha-induced NFkappaB activation by measuring decrease in IkBalpha phosphorylation at 0.1 uM pretreated for 2 hrs followed by stimulation with TNF-alpha for 3 mins by western blot analysis; assay type: cell-based; conditions: time 123.0 min
[18] = target: T3, Protein cereblon-IAP (Homo sapiens); test: PROTAC activity at CRBN/IAP in human MCF7 cells assessed as inhibition of TNFalpha-induced NFkappaB activation by measuring decrease in p65 phosphorylation at 0.1 uM pretreated for 2 hrs followed by stimulation with TNF-alpha for 3 mins by western blot analysis; assay type: cell-based; conditions: time 123.0 min
[19] = target: T3, Protein cereblon-IAP (Homo sapiens); test: PROTAC activity at CRBN/IAP in human MCF7 cells assessed as inhibition of TNFalpha-induced NFkappaB activation by measuring decrease in p38 phosphorylation at 0.1 uM pretreated for 2 hrs followed by stimulation with TNF-alpha for 3 mins by western blot analysis; assay type: cell-based; conditions: time 123.0 min
[20] = system: MDA-MB-231; test: Inhibition of TNFalpha-induced cell migration in human MDA-MB-231 cells at 0.1 uM measured after 24 hrs in presence of TNFalpha by transwell assay; assay type: functional, cell-based
[21] = system: MDA-MB-231; test: Inhibition of TNFalpha-induced cell invasion in human MDA-MB-231 cells at 0.1 uM measured after 24 hrs in presence of TNFalpha by transwell assay; assay type: functional, cell-based
[22] = system: MDA-MB-157; test: Inhibition of TNFalpha-induced cell migration in human MDA-MB-157 cells at 0.1 uM measured after 24 hrs in presence of TNFalpha by transwell assay; assay type: functional, cell-based
[23] = system: MDA-MB-157; test: Inhibition of TNFalpha-induced cell invasion in human MDA-MB-157 cells at 0.1 uM measured after 24 hrs in presence of TNFalpha by transwell assay; assay type: functional, cell-based

T1 sequence (P98170 whole entry, looked up): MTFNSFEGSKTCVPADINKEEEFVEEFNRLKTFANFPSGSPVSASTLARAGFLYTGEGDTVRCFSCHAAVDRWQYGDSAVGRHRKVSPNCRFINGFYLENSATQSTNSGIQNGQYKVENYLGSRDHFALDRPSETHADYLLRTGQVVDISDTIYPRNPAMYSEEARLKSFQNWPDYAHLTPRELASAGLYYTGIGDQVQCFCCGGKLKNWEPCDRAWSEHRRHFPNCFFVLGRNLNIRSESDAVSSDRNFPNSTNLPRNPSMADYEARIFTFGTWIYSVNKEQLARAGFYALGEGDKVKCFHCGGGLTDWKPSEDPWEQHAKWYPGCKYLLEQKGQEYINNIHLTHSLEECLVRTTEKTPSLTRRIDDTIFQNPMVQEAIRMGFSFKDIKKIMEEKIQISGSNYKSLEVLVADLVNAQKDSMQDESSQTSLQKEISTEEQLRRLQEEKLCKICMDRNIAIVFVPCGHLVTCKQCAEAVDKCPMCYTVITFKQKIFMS
T1 sequence (Q96SW2 whole entry, looked up): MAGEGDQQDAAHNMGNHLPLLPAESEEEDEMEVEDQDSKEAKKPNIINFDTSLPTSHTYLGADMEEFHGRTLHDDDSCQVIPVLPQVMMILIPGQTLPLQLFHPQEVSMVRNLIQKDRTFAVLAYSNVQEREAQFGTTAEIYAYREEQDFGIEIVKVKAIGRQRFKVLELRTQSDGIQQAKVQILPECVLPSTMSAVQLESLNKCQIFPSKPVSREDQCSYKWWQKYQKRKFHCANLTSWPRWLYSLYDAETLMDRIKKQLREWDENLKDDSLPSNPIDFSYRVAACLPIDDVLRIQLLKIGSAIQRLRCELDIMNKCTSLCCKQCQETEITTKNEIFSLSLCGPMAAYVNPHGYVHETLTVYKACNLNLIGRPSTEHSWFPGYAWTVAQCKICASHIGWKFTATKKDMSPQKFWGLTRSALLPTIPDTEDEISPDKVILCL
T3 sequence (P98170 whole entry, looked up): as the sequence (P98170 whole entry, looked up) above
T3 sequence (Q13489 whole entry, looked up): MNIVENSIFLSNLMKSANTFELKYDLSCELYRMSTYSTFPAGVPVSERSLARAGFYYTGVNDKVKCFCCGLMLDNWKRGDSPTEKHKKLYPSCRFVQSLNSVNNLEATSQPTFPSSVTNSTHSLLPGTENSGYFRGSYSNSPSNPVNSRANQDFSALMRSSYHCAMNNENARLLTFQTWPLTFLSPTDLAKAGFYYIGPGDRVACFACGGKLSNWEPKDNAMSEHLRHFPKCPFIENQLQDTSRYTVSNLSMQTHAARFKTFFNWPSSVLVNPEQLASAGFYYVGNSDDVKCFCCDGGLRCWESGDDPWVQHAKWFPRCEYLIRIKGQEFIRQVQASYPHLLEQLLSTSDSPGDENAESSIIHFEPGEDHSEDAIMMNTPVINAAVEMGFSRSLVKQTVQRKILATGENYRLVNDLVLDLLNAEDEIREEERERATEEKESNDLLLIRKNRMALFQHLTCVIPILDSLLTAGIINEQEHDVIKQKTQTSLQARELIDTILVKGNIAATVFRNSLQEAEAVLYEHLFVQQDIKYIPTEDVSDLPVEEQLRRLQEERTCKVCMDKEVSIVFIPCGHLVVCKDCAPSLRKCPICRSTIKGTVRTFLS
T3 sequence (Q13490 whole entry, looked up): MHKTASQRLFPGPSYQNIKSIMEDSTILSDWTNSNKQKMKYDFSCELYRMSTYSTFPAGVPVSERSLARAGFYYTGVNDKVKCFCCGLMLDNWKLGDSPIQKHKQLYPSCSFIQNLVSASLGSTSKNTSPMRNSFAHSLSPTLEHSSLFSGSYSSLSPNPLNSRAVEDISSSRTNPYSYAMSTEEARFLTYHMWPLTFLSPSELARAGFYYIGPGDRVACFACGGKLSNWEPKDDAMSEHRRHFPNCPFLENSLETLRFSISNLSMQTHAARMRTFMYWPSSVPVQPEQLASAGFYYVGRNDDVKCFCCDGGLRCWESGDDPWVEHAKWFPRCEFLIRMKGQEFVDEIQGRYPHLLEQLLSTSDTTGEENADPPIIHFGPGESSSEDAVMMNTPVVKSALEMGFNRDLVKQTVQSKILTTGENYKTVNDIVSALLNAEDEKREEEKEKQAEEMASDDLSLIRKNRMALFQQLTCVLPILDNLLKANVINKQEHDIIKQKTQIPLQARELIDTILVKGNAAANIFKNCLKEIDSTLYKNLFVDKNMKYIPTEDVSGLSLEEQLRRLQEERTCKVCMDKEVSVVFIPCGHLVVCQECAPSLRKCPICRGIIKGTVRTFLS
T3 sequence (Q96SW2 whole entry, looked up): as the sequence (Q96SW2 whole entry, looked up) above
Baculoviral IAP repeat-containing protein 2 (Homo sapiens), sequence (Q13490 whole entry): as the sequence (Q13490 whole entry, looked up) above
T2 sequence (Q13489 whole entry, looked up): as the sequence (Q13489 whole entry, looked up) above
T2 sequence (Q96SW2 whole entry, looked up): as the sequence (Q96SW2 whole entry, looked up) above
Protein cereblon (Homo sapiens), sequence (Q96SW2 whole entry): as the sequence (Q96SW2 whole entry, looked up) above
Baculoviral IAP repeat-containing protein 3 (Homo sapiens), sequence (Q13489 whole entry): as the sequence (Q13489 whole entry, looked up) above

SMILES	Activity [1] [%]	Activity [2] [%]	Activity [3] [%]	Activity [4] [%]	Activity [5] [%]	Activity [6] [%]	Activity [7]	also measured
CN[C@@H](C)C(=O)N[C@H](C(=O)N1Cc2cc(OCCCCCNC(=O)CNc3ccc4c(c3)C(=O)N(C3CCC(=O)NC3=O)C4=O)ccc2C[C@H]1C(=O)N[C@@H]1CCCc2ccccc21)C(C)(C)C (some centres undefined)	87	65	100	100	91	92	inactive	–
CN[C@@H](C)C(=O)N[C@H](C(=O)N1Cc2cc(O)ccc2C[C@H]1C(=O)N[C@@H]1CCCc2ccccc21)C(C)(C)C	0	0	100	100	93	95	inactive	Activity [8]: Active; Activity [9]: Active; Activity [10]: Active; Activity [11]: Active; Activity [12]: 31%; GI50 [13]: > 500 µM; Activity [14]: Active
CNC(C)C(=O)NC(C(=O)N1Cc2cc(OCCCCCNc3ccc4c(c3)C(=O)N(C3CCC(=O)NC3=O)C4=O)ccc2C[C@H]1C(=O)NC1CCCc2ccccc21)C(C)(C)C (single isomer, unassigned)	67	58	100	98	97	98	inactive	–
CN[C@@H](C)C(=O)N[C@H](C(=O)N1Cc2cc(OCCOCCNC(=O)C3CCN(c4ccc5c(c4)C(=O)N(C4CCC(=O)NC4=O)C5=O)CC3)ccc2C[C@H]1C(=O)N[C@@H]1CCCc2ccccc21)C(C)(C)C (some centres undefined)	0	0	99	94	94	93	inactive	–
CN[C@@H](C)C(=O)N[C@H](C(=O)N1Cc2cc(OCCCCCCCCNC(=O)C3CCN(c4ccc5c(c4)C(=O)N(C4CCC(=O)NC4=O)C5=O)CC3)ccc2C[C@H]1C(=O)N[C@@H]1CCCc2ccccc21)C(C)(C)C (some centres undefined)	95	82	98	99	96	97	inactive	–
CN[C@@H](C)C(=O)N[C@H](C(=O)N1Cc2cc(OCCCCCCCCNC(=O)C3CN(c4ccc5c(c4)C(=O)N(C4CCC(=O)N(C)C4=O)C5=O)C3)ccc2C[C@H]1C(=O)N[C@@H]1CCCc2ccccc21)C(C)(C)C (some centres undefined)	–	–	–	–	–	–	–	Activity [8]: Active; Activity [15]: Active; Activity [10]: Active; Activity [11]: Active; Activity [12]: 32%; GI50 [13]: 77.8 µM; Activity [14]: Active; Activity [16]: inactive; Activity [17]: inactive; Activity [18]: inactive; Activity [19]: inactive; inhibition [20]: Active; inhibition [21]: Active; inhibition [22]: Active; inhibition [23]: Active
CN[C@@H](C)C(=O)N[C@H](C(=O)N1Cc2cc(OCCCCCNC(=O)C3CN(c4ccc5c(c4)C(=O)N(C4CCC(=O)NC4=O)C5=O)C3)ccc2C[C@H]1C(=O)N[C@@H]1CCCc2ccccc21)C(C)(C)C (some centres undefined)	56	39	100	100	92	89	inactive	–
CN[C@@H](C)C(=O)N[C@H](C(=O)N1Cc2cc(OCCCCCNc3cccc4c3C(=O)N(C3CCC(=O)NC3=O)C4=O)ccc2C[C@H]1C(=O)N[C@@H]1CCCc2ccccc21)C(C)(C)C (some centres undefined)	81	65	100	100	94	92	inactive	–
CN[C@@H](C)C(=O)N[C@H](C(=O)N1Cc2cc(OCCCNC(=O)C3CCN(c4ccc5c(c4)C(=O)N(C4CCC(=O)NC4=O)C5=O)CC3)ccc2C[C@H]1C(=O)N[C@@H]1CCCc2ccccc21)C(C)(C)C (some centres undefined)	52	13	97	100	92	95	inactive	–
CN[C@@H](C)C(=O)N[C@H](C(=O)N1Cc2cc(OCCCCCNC(=O)C3CCN(c4ccc5c(c4)C(=O)N(C4CCC(=O)NC4=O)C5=O)CC3)ccc2C[C@H]1C(=O)N[C@@H]1CCCc2ccccc21)C(C)(C)C (some centres undefined)	90	78	97	100	91	93	inactive	–
CN[C@@H](C)C(=O)N[C@H](C(=O)N1Cc2cc(OCCCCCNC(=O)COc3ccc4c(c3)C(=O)N(C3CCC(=O)NC3=O)C4=O)ccc2C[C@H]1C(=O)N[C@@H]1CCCc2ccccc21)C(C)(C)C (some centres undefined)	83	73	100	100	89	91	inactive	–
CN[C@@H](C)C(=O)N[C@H](C(=O)N1Cc2cc(OCCCCCNC(=O)C3CCN(c4cccc5c4C(=O)N(C4CCC(=O)NC4=O)C5=O)CC3)ccc2C[C@H]1C(=O)N[C@@H]1CCCc2ccccc21)C(C)(C)C (some centres undefined)	91	78	99	90	93	91	inactive	–
